{"source": "patent US20160279236A1", "about": "“USE OF RAPAMYCIN AS VACCINE ADJUVANT AND PREPARATION METHOD THEREFOR” (INSTITUT PASTEUR OF SHANGHAI, CHINESE ACADEMY OF SCIENCES, priority 2013, published 2016)", "key": {"BMDCs": {"system": "BMDCs", "test": "Cytokine production (ELISA) in LPS-stimulated BMDCs pre-treated with rapamycin", "type": "cell-based, C57BL/6 mice", "method": "Bone marrow stem cells from 6-8 weeks aged C57BL/6 mice were taken, and erythrocytes were removed by using ammonium chloride lysate (0.15 M NH4Cl, 1 mM […], 0.1 mM Na2EDTA, pH7.3), and then suspension-cultured at a cell density of 10^6 cells/mL in a dendritic cell (bone-marrow derived dendritic cell, BMDC) differentiation medium (formulation of which was: RPMI 1640 complete medium (comprising 5% (v/v) FBS and 1% (v/v) pen strep), with 20 ng/ml GM-CSF, 10 ng/ml IL-4, 2 mM L-glutamine and 200 μM β-mercaptoethanol being added). After differentiation for 7 days, the cells were purified with CD11c magnetic beads to obtain BMDCs. The purified BMDCs were resuspended in a fresh dendritic cell culture medium (10^6 cells/ml), and inoculated into 24-well plate with 500 μL per well 100 nM of rapamycin or DMSO (control) were used to pre-treat the cells for 1 hour, and then the cells were stimulated with 100 ng/ml LPS for 24 hours. The supernatant was taken and the amount of IL-12 was measured by ELISA."}, "BMDMs": {"system": "BMDMs", "test": "Real-time quantitative PCR of gene expression in LPS-stimulated BMDMs", "type": "cell-based, C57BL/6 mice", "details": "100 nM rapamycin", "method": "Bone marrow stem cells of 6-8 weeks aged C57BL/6 mice were taken, and the cells are cultivated at 10^6 cells/mL cell density in bone marrow-derived macrophage (BMDM) differentiation medium (formulation of which was: RPMI 1640 complete medium added with 30% (v/v) L929 conditioned medium and 1% (v/v) pen/strep). After differentiation for 4 days, the old culture medium (comprising suspended cells) was removed and fresh BMDM differentiation medium was added. The adhered BMDMs were collected on the 7th day of differentiation and used in in vitro experiment.\nThe BMDMs were pre-treated with 100 nM of rapamycin or DMSO for 1 hour, and then the cells were stimulated with 100 ng/ml LPS […]. The cells were collected at 1, 2, 4 and 8 hours, and were cryopreserved in a refrigerator at −80° C. for the extraction and preparation of RNA.\nTRIZOL (Invitrogen) method was used to extract RNA of BMDM, and Superscript™ III Reverse Transcriptase Kit (Invitrogen) was used to respectively reverse transcribe 1 μg RNA so as to synthesize the first-strand cDNA for Real-time quantitative PCR determine of gene expression levels. The primers for Real-time quantitative PCR are shown in table 1. ΔΔ method was used to calculate the relative expression level of the determined gene compared with GAPDH."}, "[1]": {"system": "HBsAg-specific antibody and T cell responses", "test": "HBsAg immunization with Compositions 1-3 (different amounts of rapamycin + MPL)", "type": "in vivo, mice", "method": "Composition 1, comprising (dosage for one mouse): rapamycin 5 μg, MPL 10 μg, and PBS 0.2 ml;\nComposition 2, comprising (dosage for one mouse): rapamycin 20 μg, MPL 10 μg, and PBS 0.2 ml;\nComposition 3, comprising (dosage for one mouse): rapamycin 100 μg, MPL 10 μg, and PBS 0.2 mL.\nMice were immunized with Compositions 1-3 in mixture with HBsAg (5 μg, dosage for one mouse) respectively, and were boosted 3 weeks after the primary immunization. The mice were killed after one week, and the serum was prepared to determine the content of HBsAg-specific IgG1, IgG2b and IgG2c (FIG. 5). Meanwhile, spleen cells (5×10^5 cells) were respectively stimulated by using 10 μg/ml of CD8^+ T cell epitope peptide ([…] or VWLSVIWM) and CD4^+ T cell epitope peptide ([…]), and after 48 hours, enzyme linked immunosorbent assays (ELISA) was used to determine the content of IFNγ in the supernatant (FIG. 5b). […] Moreover, at all of the three concentrations, rapamycin has increased T cell response induced by MPL, especially the activation of CD4^+ and CD8^+ T cells which secrete IFN-γ (FIG. 5b)."}, "[2]": {"system": "HBsAg-specific antibody titers", "test": "HBsAg homologous prime-boost immunization with adjuvants", "type": "in vivo, C57BL6 mice", "method": "HBsAg (5 μg/mouse) was respectively mixed with the following adjuvants or adjuvant combinations: rapamycin (100 μg/mouse)+MPL (10 μg/mouse), MPL (10 μg/mouse), rapamycin (100 μg/mouse) or Alum (200 μg/mouse)+MPL (10 μg/mouse) to immunize (primary immunization) C57BL6 mice. After 4 weeks, each group of mice was boosted according to the same program as the primary immunization. The mice were killed after two weeks, and serum was prepared for determining the content of HBsAg-specific IgG1, IgG2b and IgG2c."}, "[3]": {"details": "BMDCs, 100 nM rapamycin, 100 ng/ml LPS"}, "[4]": {"details": "100 ng/ml LPS, during 4 hours of LPS stimulation, relative to GAPDH"}, "[5]": {"details": "5 μg of rapamycin + MPL 10 μg, HBsAg 5 μg per mouse"}, "[6]": {"details": "after immunized for two times, HBsAg 5 μg/mouse, rapamycin 100 μg/mouse, serum two weeks after boost"}}, "note": "Entries after “also recorded” stand apart in the source; their conditions may differ."}
{"molecule": "CO[C@H]1C[C@@H]2CC[C@@H](C)[C@@](O)(O2)C(=O)C(=O)N2CCCC[C@H]2C(=O)O[C@H]([C@H](C)C[C@@H]2CC[C@@H](O)[C@H](OC)C2)CC(=O)[C@H](C)/C=C(\\C)[C@@H](O)[C@@H](OC)C(=O)[C@H](C)C[C@H](C)/C=C/C=C/C=C/1C", "note": "[rapamycin]", "values": [{"measurement": "amount of IL-12, increase compared with the control group", "setting": "BMDCs; 100 nM rapamycin pre-treatment 1 hour, 100 ng/ml LPS 24 hours, supernatant ELISA, DMSO control", "result": "more than 3 times"}, {"measurement": "LPS-induced IL-12 production", "setting": "BMDCs; [3]", "result": "enhanced; also recorded: promote"}, {"measurement": "induced-secretion of IL-23", "setting": "BMDCs; [3]", "result": "remarkably increase; also recorded: enhanced; also recorded: promote"}, {"measurement": "production of IL-10", "setting": "BMDCs; [3]", "result": "inhibit the production; also recorded: inhibited"}, {"measurement": "LPS-induced IL-12 production", "setting": "BMDCs; BMDCs, 100 nM rapamycin, 100 ng/ml LPS, listed as Rapamycin", "result": "significantly enhance"}, {"measurement": "expression of IL-10", "setting": "BMDMs; [4]", "result": "inhibit the expression"}, {"measurement": "transcriptional expression of IL-12a", "setting": "BMDMs; [4]", "result": "increased the transcriptional expression; also recorded: promote the transcript expression"}, {"measurement": "transcriptional expression of IL-12b", "setting": "BMDMs; [4]", "result": "increased the transcriptional expression; also recorded: promote the transcript expression"}, {"measurement": "transcriptional expression of IL-23a", "setting": "BMDMs; [4]", "result": "increased the transcriptional expression; also recorded: promote the transcript expression"}, {"measurement": "transcription and expression of CXCL2", "setting": "BMDMs; LPS", "result": "did not affect the transcription and expression"}, {"measurement": "transcription and expression of TNFα", "setting": "BMDMs; LPS", "result": "did not affect the transcription and expression"}, {"measurement": "expression of CD40", "setting": "BMDMs; upon stimulation of LPS", "result": "no remarkable influence"}, {"measurement": "expression of CD80", "setting": "BMDMs; upon stimulation of LPS", "result": "no remarkable influence"}, {"measurement": "expression of CD86", "setting": "BMDMs; upon stimulation of LPS", "result": "no remarkable influence"}, {"measurement": "expression of PD-L1", "setting": "BMDMs; upon stimulation of LPS", "result": "remarkably decreased the expression; also recorded: inhibit the expression"}, {"measurement": "antibody titers induced by MPL", "setting": "[1]; [5]", "result": "significantly increase"}, {"measurement": "increase of secretion of IgG2b induced by MPL", "setting": "[1]; [5]", "result": "~5", "unit": "times"}, {"measurement": "increase of secretion of IgG2c induced by MPL", "setting": "[1]; [5]", "result": "~5", "unit": "times"}, {"measurement": "T cell response induced by MPL (IFN-γ secreting CD4+ and CD8+ T cells)", "setting": "[1]; all three amounts of rapamycin (5, 20, 100 μg) + MPL 10 μg, IFNγ ELISA of peptide-stimulated spleen cells", "result": "increased"}, {"measurement": "HBsAg-specific antibody responses enhanced by MPL", "setting": "[1]; different amounts of rapamycin, FIG. 5a", "result": "increased"}, {"measurement": "antibodies induced by MPL", "setting": "[1]; rapamycin raised to 20 or 100 μg + MPL 10 μg, HBsAg 5 μg per mouse", "result": "further enhanced"}, {"measurement": "MPL-induced antibody titers and T cell response, dose dependence", "setting": "[1]; rapamycin within the range of 5-100 μg", "result": "dose-dependent manner"}, {"measurement": "HBsAg-induced antibody titers, IgG1", "setting": "[2]; [6]", "result": "significantly enhance"}, {"measurement": "HBsAg-induced antibody titers, IgG2b", "setting": "[2]; [6]", "result": "significantly enhance"}, {"measurement": "HBsAg-induced antibody titers, IgG2c", "setting": "[2]; [6]", "result": "significantly enhance"}, {"measurement": "adjuvant activity of MPL", "setting": "[2]; homologous prime-boost immunization program, FIG. 6", "result": "remarkably enhance"}]}
